In ChEMBL document CHEMBL1909046, “DrugMatrix in vitro pharmacology data”:

How the values were obtained:
[1] = target: T1, Cytochrome P450 1A2 (Homo sapiens, UniProt P05177); conditions: bti-tn-5b1-4; also: in other assays of this panel Not Active means under 50% inhibition at 10 µM
T1 sequence (P05177 whole entry): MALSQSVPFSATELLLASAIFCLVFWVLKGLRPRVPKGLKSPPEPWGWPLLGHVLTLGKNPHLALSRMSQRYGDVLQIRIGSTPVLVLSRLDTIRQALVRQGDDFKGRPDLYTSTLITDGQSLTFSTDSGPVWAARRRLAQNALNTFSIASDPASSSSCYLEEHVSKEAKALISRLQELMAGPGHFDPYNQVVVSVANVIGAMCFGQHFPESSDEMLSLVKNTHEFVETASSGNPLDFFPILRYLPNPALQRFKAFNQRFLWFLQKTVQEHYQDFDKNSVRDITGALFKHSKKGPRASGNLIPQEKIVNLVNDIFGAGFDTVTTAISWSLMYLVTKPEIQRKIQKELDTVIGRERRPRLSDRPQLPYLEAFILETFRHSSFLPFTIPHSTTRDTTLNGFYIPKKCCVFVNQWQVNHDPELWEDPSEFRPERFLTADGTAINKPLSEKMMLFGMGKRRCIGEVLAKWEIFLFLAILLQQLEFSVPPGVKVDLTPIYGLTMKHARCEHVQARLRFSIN

[2] = target: T2, Alpha-2A adrenergic receptor (Homo sapiens, UniProt P08913); assay type: cell membranes, Sf9, Membrane; conditions: sf9; also: in other assays of this panel Not Active means under 50% inhibition at 10 µM
T2 sequence (P08913 whole entry): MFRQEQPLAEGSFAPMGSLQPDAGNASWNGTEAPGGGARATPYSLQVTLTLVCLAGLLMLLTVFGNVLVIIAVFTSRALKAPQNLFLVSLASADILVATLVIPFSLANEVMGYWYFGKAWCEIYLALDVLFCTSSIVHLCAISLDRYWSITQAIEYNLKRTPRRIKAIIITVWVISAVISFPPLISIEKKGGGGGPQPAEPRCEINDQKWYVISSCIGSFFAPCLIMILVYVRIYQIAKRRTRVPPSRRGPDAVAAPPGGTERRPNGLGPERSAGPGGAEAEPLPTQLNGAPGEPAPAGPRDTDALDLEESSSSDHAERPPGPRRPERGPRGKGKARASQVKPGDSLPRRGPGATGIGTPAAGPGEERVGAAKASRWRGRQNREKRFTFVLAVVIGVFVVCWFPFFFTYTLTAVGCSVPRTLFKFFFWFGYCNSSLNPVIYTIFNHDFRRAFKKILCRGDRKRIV

[3] = target: Cytochrome P450 3A4 (Homo sapiens, UniProt P08684); conditions: bti-tn-5b1-4; also: in other assays of this panel Not Active means under 50% inhibition at 10 µM
Sequence of Cytochrome P450 3A4 (P08684 whole entry): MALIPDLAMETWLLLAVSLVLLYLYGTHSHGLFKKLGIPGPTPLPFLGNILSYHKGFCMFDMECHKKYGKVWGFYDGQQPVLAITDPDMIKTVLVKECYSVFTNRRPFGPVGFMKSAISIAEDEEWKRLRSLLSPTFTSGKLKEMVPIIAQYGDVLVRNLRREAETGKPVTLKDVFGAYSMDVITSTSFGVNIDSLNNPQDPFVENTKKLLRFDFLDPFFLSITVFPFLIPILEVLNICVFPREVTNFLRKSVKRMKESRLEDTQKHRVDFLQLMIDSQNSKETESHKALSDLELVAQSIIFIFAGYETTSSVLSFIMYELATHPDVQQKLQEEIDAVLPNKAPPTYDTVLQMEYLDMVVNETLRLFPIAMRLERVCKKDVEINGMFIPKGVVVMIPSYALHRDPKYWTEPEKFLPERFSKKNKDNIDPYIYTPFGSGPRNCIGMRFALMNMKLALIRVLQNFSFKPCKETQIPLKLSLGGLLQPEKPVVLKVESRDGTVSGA

[4] = target: D(1A) dopamine receptor (Homo sapiens, UniProt P21728); assay: DRUGMATRIX: Dopamine D1 radioligand binding (ligand: [3H] SCH-23390); assay type: cell membranes, CHO, Membrane; conditions: cho; Not Active = under 50% inhibition at 10 µM
Sequence of D(1A) dopamine receptor (P21728 whole entry): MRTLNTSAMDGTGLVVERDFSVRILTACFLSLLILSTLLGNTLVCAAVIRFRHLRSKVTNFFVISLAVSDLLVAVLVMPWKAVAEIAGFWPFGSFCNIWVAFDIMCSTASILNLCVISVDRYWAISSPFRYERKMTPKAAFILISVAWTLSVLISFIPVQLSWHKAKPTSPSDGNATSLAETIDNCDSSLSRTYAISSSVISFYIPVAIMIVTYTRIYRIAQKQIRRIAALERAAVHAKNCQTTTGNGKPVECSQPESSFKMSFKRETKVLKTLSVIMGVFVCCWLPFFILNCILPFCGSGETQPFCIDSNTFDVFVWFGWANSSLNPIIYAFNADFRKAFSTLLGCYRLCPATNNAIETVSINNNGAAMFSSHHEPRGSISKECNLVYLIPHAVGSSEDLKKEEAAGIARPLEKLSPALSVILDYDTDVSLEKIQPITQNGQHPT

[5] = target: T3, Alpha-1B adrenergic receptor (Rattus norvegicus, UniProt P15823); assay: DRUGMATRIX: Alpha-1B adrenergic receptor radioligand binding (ligand: prazosin); assay type: cell membranes, Wistar, Liver, Membrane; conditions: Not Active = under 50% inhibition at 10 µM
T3 sequence (P15823 whole entry): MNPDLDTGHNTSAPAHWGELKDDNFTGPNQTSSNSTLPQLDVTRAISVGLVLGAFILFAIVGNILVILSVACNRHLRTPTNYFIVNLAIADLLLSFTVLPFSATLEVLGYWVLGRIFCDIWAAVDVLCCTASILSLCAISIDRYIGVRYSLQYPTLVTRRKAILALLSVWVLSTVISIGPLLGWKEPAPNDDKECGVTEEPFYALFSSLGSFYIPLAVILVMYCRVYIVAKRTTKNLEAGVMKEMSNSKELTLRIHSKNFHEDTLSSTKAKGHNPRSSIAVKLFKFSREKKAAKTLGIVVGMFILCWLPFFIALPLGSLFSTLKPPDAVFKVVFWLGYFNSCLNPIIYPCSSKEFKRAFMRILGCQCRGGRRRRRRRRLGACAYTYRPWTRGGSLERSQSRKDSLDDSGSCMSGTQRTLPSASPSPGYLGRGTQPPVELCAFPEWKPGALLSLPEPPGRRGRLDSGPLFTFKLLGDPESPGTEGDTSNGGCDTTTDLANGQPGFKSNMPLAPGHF

[6] = target: Cytochrome P450 2E1 (Homo sapiens, UniProt P05181); conditions: bti-tn-5b1-4; also: in other assays of this panel Not Active means under 50% inhibition at 10 µM
Sequence of Cytochrome P450 2E1 (P05181 whole entry): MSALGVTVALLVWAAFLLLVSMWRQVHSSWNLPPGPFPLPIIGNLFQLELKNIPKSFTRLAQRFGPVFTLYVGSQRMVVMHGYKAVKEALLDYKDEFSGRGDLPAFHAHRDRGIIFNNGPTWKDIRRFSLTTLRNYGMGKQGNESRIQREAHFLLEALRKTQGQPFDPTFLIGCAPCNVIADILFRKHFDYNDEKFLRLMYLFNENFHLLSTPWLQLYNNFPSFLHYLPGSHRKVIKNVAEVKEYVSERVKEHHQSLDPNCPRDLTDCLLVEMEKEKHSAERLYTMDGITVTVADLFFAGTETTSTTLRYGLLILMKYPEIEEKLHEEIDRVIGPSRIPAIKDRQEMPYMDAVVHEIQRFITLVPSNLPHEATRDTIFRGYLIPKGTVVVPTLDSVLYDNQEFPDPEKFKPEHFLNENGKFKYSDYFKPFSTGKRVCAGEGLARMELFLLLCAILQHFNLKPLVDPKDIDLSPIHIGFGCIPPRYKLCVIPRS

[7] = target: T4, Progesterone receptor (Bos taurus, UniProt Q690N0); assay: DRUGMATRIX: Progesterone radioligand binding (ligand: [3H] R-5020); assay type: tissue-based, Uterus; conditions: Not Active = under 50% inhibition at 10 µM
T4 sequence (Q690N0 whole entry): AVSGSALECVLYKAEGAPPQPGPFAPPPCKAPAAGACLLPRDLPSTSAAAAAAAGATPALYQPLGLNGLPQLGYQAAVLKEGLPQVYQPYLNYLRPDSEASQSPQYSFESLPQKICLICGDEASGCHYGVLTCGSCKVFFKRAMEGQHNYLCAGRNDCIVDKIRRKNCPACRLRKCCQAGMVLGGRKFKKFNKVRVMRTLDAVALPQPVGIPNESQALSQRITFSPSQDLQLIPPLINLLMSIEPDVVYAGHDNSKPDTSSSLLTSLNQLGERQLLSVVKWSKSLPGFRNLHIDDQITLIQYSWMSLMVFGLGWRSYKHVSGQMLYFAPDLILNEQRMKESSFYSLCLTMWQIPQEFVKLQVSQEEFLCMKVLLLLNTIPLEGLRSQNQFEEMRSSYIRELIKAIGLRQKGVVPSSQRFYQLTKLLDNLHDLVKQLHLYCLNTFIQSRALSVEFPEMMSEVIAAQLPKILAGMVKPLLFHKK

Compound | IC50 [1] | Ki [1] | IC50 [2] | IC50 [3] | Ki [3] | IC50 [4] | IC50 [5] | IC50 [6] | Ki [6] | IC50 ([7]; read-out: IC50) [nM] | Ki ([7]; read-out: Ki) [nM] | IC50 [7] | Ki [2] | Ki [4] | Ki [5] | Ki [7]
C#C[C@]1(O)CC[C@H]2[C@@H]3[C@H](C)CC4=C(CCC(=O)C4)[C@H]3CC[C@@]21C [TIBOLONE] | Not Active | Not Active | Not Active | Not Active | Not Active | Not Active | Not Active | Not Active | Not Active | 220 | 28.7 | – | – | – | – | –
Cc1nnc(NS(=O)(=O)c2ccc(N)cc2)s1 [SULFAMETHIZOLE] | Not Active | Not Active | Not Active | Not Active | Not Active | Not Active | Not Active | Not Active | Not Active | – | – | Not Active | – | – | – | –
C[C@]12CCC(=O)C[C@@H]1CC[C@@H]1[C@@H]2CC[C@]2(C)[C@@H](O)CC[C@@H]12 [STANOLONE] | Not Active | Not Active | Not Active | Not Active | Not Active | Not Active | Not Active | Not Active | Not Active | 1250 | 163 | – | – | – | – | –
CO[C@@]12[C@H](COC(N)=O)C3=C(C(=O)C(C)=C(N)C3=O)N1C[C@@H]1N[C@@H]12 [MITOMYCIN] | Not Active | Not Active | Not Active | Not Active | Not Active | Not Active | Not Active | Not Active | Not Active | – | – | Not Active | – | – | – | –
CC(Cl)(Cl)Cl [TRICHLOROETHANE] | Not Active | Not Active | Not Active | Not Active | Not Active | Not Active | Not Active | Not Active | Not Active | – | – | Not Active | – | – | – | –
CC[C@H](C)C(=O)O[C@H]1CCC=C2C=C[C@H](C)[C@H](CC[C@@H]3C[C@@H](O)CC(=O)O3)[C@H]21 [MEVASTATIN] | Not Active | Not Active | Not Active | Not Active | Not Active | Not Active | Not Active | Not Active | Not Active | – | – | Not Active | – | – | – | –
CC(=O)O[C@]1(C(C)=O)CC[C@H]2[C@@H]3C[C@H](C)C4=CC(=O)CC[C@]4(C)[C@H]3CC[C@@]21C [MEDROXYPROGESTERONE ACETATE] | Not Active | Not Active | Not Active | Not Active | Not Active | Not Active | Not Active | Not Active | Not Active | 2.25 | 0.293 | – | – | – | – | –
Cc1cnc(NC(=O)C2=C(O)c3ccccc3S(=O)(=O)N2C)s1 [MELOXICAM] | Not Active | Not Active | Not Active | Not Active | Not Active | Not Active | Not Active | Not Active | Not Active | – | – | Not Active | – | – | – | –
O=[As][O-].[Na+] [SODIUM ARSENITE] | Not Active | Not Active | Not Active | Not Active | Not Active | Not Active | Not Active | Not Active | Not Active | – | – | Not Active | – | – | – | –
COC(=O)Nc1nc2ccc(C(=O)c3ccccc3)cc2[nH]1 [MEBENDAZOLE] | Not Active | Not Active | Not Active | Not Active | Not Active | Not Active | Not Active | Not Active | Not Active | – | – | Not Active | – | – | – | –
O=C(c1ccccc1)c1ccc2n1CCC2C(=O)O (configuration not stated) [KETOROLAC] | Not Active | Not Active | Not Active | Not Active | Not Active | Not Active | Not Active | Not Active | Not Active | – | – | Not Active | – | – | – | –
O=C(O)c1cc(/N=N/c2ccc(S(=O)(=O)Nc3ccccn3)cc2)ccc1O [SULFASALAZINE] | Not Active | Not Active | Not Active | Not Active | Not Active | Not Active | Not Active | Not Active | Not Active | – | – | Not Active | – | – | – | –
CC1(C)[C@H](C(=O)O)N2C(=O)C[C@H]2S1(=O)=O [SULBACTAM] | Not Active | Not Active | Not Active | Not Active | Not Active | Not Active | Not Active | Not Active | Not Active | – | – | Not Active | – | – | – | –
LEAD(IV) ACETATE | Not Active | Not Active | Not Active | Not Active | Not Active | Not Active | Not Active | Not Active | Not Active | – | – | Not Active | Not Active | Not Active | Not Active | Not Active
CC(O)C(=O)O (configuration not stated) [LACTIC ACID] | Not Active | Not Active | Not Active | Not Active | Not Active | Not Active | Not Active | Not Active | Not Active | – | – | Not Active | – | – | – | –
